Experimental data as given in PubChem BioAssay AID330 (DTP/NCI, 2004).
Where “and” joins values, the source holds several entries; their conditions need not be identical. Equal values may be shown once. Toxic doses and inconclusive results are not listed.

Test system: P388 leukemia ip, CD2F1 mice, survival T/C
Assay: NCI In Vivo Anticancer Drug Screen. Data for tumor model P388 Leukemia (intraperitoneal) in CD2F1 (CDF1) mice
Settings: endpoint: median survival time, higher = longer survival
In short: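 Mice carrying the transplanted tumor received test compound or vehicle. Survival was recorded in each group, and the value is the treated-group measurement divided by that of the vehicle-treated control group.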

[1] = dose: 12.5 mg/kg/injection, schedule: Q01DX005 (ip), vehicle: saline with Tween-80
[2] = dose: 25.0 mg/kg/injection, schedule: Q01DX005 (ip), vehicle: saline with Tween-80
[3] = dose: 50.0 mg/kg/injection, schedule: Q01DX005 (ip), vehicle: saline with Tween-80
[4] = dose: 100.0 mg/kg/injection, schedule: Q01DX001 (ip), vehicle: saline with Tween-80
[5] = dose: 400.0 mg/kg/injection, schedule: Q01DX001 (ip), vehicle: saline with Tween-80
[6] = dose: 12.5 mg/kg/injection, schedule: Q01DX009 (ip), vehicle: saline
[7] = dose: 25.0 mg/kg/injection, schedule: Q01DX009 (ip), vehicle: saline
[8] = dose: 50.0 mg/kg/injection, schedule: Q01DX009 (ip), vehicle: saline
[9] = dose: 50.0 mg/kg/injection, schedule: Q01DX005 (ip), vehicle: Klucel (hydroxypropylcellulose) (HPC)
[10] = dose: 100.0 mg/kg/injection, schedule: Q01DX005 (ip), vehicle: Klucel (hydroxypropylcellulose) (HPC)
[11] = dose: 200.0 mg/kg/injection, schedule: Q01DX005 (ip), vehicle: Klucel (hydroxypropylcellulose) (HPC)
[12] = dose: 60.0 mg/kg/injection, schedule: Q01DX005 (ip), vehicle: saline with Tween-80
[13] = dose: 120.0 mg/kg/injection, schedule: Q01DX005 (ip), vehicle: saline with Tween-80
[14] = dose: 240.0 mg/kg/injection, schedule: Q01DX005 (ip), vehicle: saline with Tween-80
[15] = dose: 100.0 mg/kg/injection, schedule: Q01DX005 (ip), vehicle: saline with Tween-80
[16] = dose: 200.0 mg/kg/injection, schedule: Q01DX005 (ip), vehicle: saline with Tween-80
[17] = dose: 100.0 mg/kg/injection, schedule: Q01DX009 (ip), vehicle: saline with Tween-80
[18] = dose: 100.0 mg/kg/injection, schedule: Q04DX003 (ip), vehicle: saline with Tween-80
[19] = dose: 200.0 mg/kg/injection, schedule: Q01DX009 (ip), vehicle: saline with Tween-80
[20] = dose: 400.0 mg/kg/injection, schedule: Q04DX003 (ip), vehicle: saline with Tween-80

In the case of `CN(C)/C=C(/N=C(C#N)C#N)C1OCCO1`, the T/C [1] was 100 % of control, the T/C [2] was 112 % of control and the T/C [3] was 117 % of control.
In the case of `COC1CCC2(C)C(=CCC3C2CCC2(C)C(OCCOS(=O)(=O)c4ccc(C)cc4)CCC32)C1` (stereo not drawn), the T/C [4] was 101 % of control, the T/C (dose: 200.0 mg/kg/injection, schedule: Q01DX001 (ip), vehicle: saline with Tween-80) was 106 % of control and the T/C [5] was 100 % of control.
With `O=[N+]([O-])c1ccc(O)c(O)c1` the T/C [6] was 100 % of control, the T/C [7] was 108 % of control and the T/C [8] was 98 % of control.
For `Cc1ccccc1-c1nc2c3ccccc3c3ccccc3c2[nH]1`, the T/C [9] was 103 % of control, the T/C [10] was 96 % of control and the T/C [11] was 100 % of control.
`CCCCNc1ccc(-c2c(N)nc(N)nc2CC)cc1[N+](=O)[O-]` was tested, and the T/C [12] was 111 % of control and 118 % of control, the T/C [13] was 121 % of control and the T/C [14] was 206 % of control. For the same molecule, the T/C (dose: 480.0 mg/kg/injection, schedule: Q01DX005 (ip), vehicle: saline with Tween-80) was 158 % of control.
In the case of `c1ccc2c(c1)Cc1ccccc1N2CCN1CCCCC1`, the T/C (dose: 50.0 mg/kg/injection, schedule: Q01DX005 (ip), vehicle: saline) was 101 % of control and the T/C (dose: 100.0 mg/kg/injection, schedule: Q01DX005 (ip), vehicle: saline) was 104 % of control.
With `CCOC(=O)C1=C(C(=O)c2ccccc2)C(c2cccc([N+](=O)[O-])c2)C(C(=O)c2ccccc2)=C(C(=O)OCC)N1` the T/C (dose: 30.0 mg/kg/injection, schedule: Q01DX005 (ip), vehicle: saline with Tween-80) was 104 % of control, the T/C [12] was 104 % of control and the T/C [13] was 104 % of control. For the same molecule, the T/C [14] was 104 % of control.
For `O=C(NCCCC(CCCNC(=O)c1ccccc1)(C(=O)O)C(=O)O)c1ccccc1`, the T/C [9] was 106 % of control, the T/C [10] was 109 % of control and the T/C [11] was 104 % of control.
`CCCCN(CCCC)C(C)C(=O)c1ccc2cc(Br)c3ccccc3c2c1` (stereo not drawn) was tested, and the T/C [1] was 110 % of control, the T/C [2] was 101 % of control and the T/C [3] was 99 % of control and 100 % of control. For the same molecule, the T/C [15] was 107 % of control and the T/C [16] was 119 % of control.
For `CC1(C=O)CCCC2(C)[C@@H]1CCC13CC(CC[C@H]12)C(C(=O)O)C3` (stereo partly drawn), the T/C (dose: 3.25 mg/kg/injection, schedule: Q01DX005 (ip), vehicle: Klucel (hydroxypropylcellulose) (HPC)) was 86 % of control, the T/C (dose: 6.5 mg/kg/injection, schedule: Q01DX005 (ip), vehicle: Klucel (hydroxypropylcellulose) (HPC)) was 90 % of control and the T/C (dose: 13.0 mg/kg/injection, schedule: Q01DX005 (ip), vehicle: Klucel (hydroxypropylcellulose) (HPC)) was 87 % of control.
For `CN1CC[C@]23c4c5ccc(O)c4O[C@H]2C(=O)CC[C@H]3[C@H]1C5`, the T/C (dose: 12.5 mg/kg/injection, schedule: Q01DX005 (iv), vehicle: saline) was 99 % of control and 102 % of control, the T/C [6] was 108 % of control and the T/C (dose: 25.0 mg/kg/injection, schedule: Q01DX005 (iv), vehicle: saline) was 102 % of control and 106 % of control. For the same molecule, the T/C [7] was 111 % of control, the T/C (dose: 50.0 mg/kg/injection, schedule: Q01DX005 (iv), vehicle: saline) was 99 % of control and 102 % of control and the T/C [8] was 103 % of control and 97 % of control. For the same molecule, the T/C (dose: 100.0 mg/kg/injection, schedule: Q01DX005 (iv), vehicle: saline) was 101 % of control and the T/C (dose: 200.0 mg/kg/injection, schedule: Q01DX005 (iv), vehicle: saline) was 102 % of control.
`Cc1ccc2ccccc2c1N(CC(=O)O)S(=O)(=O)c1ccccc1` was tested, and the T/C [17] was 100 % of control, the T/C [18] was 100 % of control and the T/C [19] was 110 % of control. The T/C (dose: 200.0 mg/kg/injection, schedule: Q04DX003 (ip), vehicle: saline with Tween-80) was 100 % of control, the T/C (dose: 400.0 mg/kg/injection, schedule: Q01DX009 (ip), vehicle: saline with Tween-80) was 120 % of control and the T/C [20] was 109 % of control.
For `O=C(O)CCCCOC(C[N+](=O)[O-])C(Cl)(Cl)Cl` (stereo not drawn), the T/C (dose: 50.0 mg/kg/injection, schedule: Q01DX009 (ip), vehicle: saline with Tween-80) was 100 % of control, the T/C [17] was 95 % of control and the T/C [19] was 99 % of control.
In the case of `N/C(=N\OC(=O)Nc1ccccc1)c1ccccc1`, the T/C [12] was 97 % of control, the T/C [13] was 94 % of control and the T/C [14] was 91 % of control.
In the case of `CCN(CC)CCSC1OC(=O)c2ccccc21` (stereo not drawn), the T/C (dose: 1.25 mg/kg/injection, schedule: Q01DX009 (ip), vehicle: saline) was 104 % of control, the T/C (dose: 2.5 mg/kg/injection, schedule: Q01DX009 (ip), vehicle: saline) was 103 % of control and the T/C (dose: 5.0 mg/kg/injection, schedule: Q01DX009 (ip), vehicle: saline) was 109 % of control. For the same molecule, the T/C (dose: 10.0 mg/kg/injection, schedule: Q01DX009 (ip), vehicle: saline) was 109 % of control.
For `COc1cc(C2c3cc4c(cc3C(O)C(CO)C2CO)OCO4)cc(OC)c1OC` (stereo not drawn), the T/C (dose: 11.0 mg/kg/injection, schedule: Q01DX009 (ip), vehicle: saline with Tween-80) was 118 % of control, the T/C (dose: 25.0 mg/kg/injection, schedule: Q04DX003 (ip), vehicle: saline with Tween-80) was 115 % of control and the T/C (dose: 37.5 mg/kg/injection, schedule: Q01DX009 (ip), vehicle: saline with Tween-80) was 150 % of control. For the same molecule, the T/C [9] was 103 % of control, the T/C [10] was 97 % of control and the T/C (dose: 100.0 mg/kg/injection, schedule: Q01DX009 (ip), vehicle: saline sonified) was 165 % of control. The T/C [18] was 155 % of control, the T/C [11] was 94 % of control and the T/C (dose: 200.0 mg/kg/injection, schedule: Q01DX009 (ip), vehicle: saline sonified) was 195 % of control. For the same molecule, the T/C (dose: 264.0 mg/kg/injection, schedule: Q04DX003 (ip), vehicle: saline with Tween-80) was 154 % of control, the T/C (dose: 400.0 mg/kg/injection, schedule: Q01DX009 (ip), vehicle: saline sonified) was 95 % of control and the T/C [20] was 163 % of control.
In the case of `C=CC1(O)CCCCC1`, the T/C [8] was 97 % of control, the T/C (dose: 100.0 mg/kg/injection, schedule: Q01DX009 (ip), vehicle: saline) was 100 % of control and the T/C (dose: 200.0 mg/kg/injection, schedule: Q01DX009 (ip), vehicle: saline) was 107 % of control.
In the case of `CN(C)CCCN=c1c2ccccc2n(O)c2cccc([N+](=O)[O-])c12`, the T/C (dose: 1.56 mg/kg/injection, schedule: Q01DX009 (ip), vehicle: saline with Tween-80) was 123 % of control, the T/C (dose: 3.12 mg/kg/injection, schedule: Q01DX009 (ip), vehicle: saline) was 117 % of control and the T/C (dose: 12.5 mg/kg/injection, schedule: Q01DX009 (ip), vehicle: saline with Tween-80) was 104 % of control.
In the case of `CCOC(=O)Cn1/c(=N/N=C/c2ccc([N+](=O)[O-])o2)sc2cc(OC)ccc21`, the T/C (dose: 3.75 mg/kg/injection, schedule: Q01DX005 (ip), vehicle: saline with Tween-80) was 97 % of control, the T/C (dose: 7.5 mg/kg/injection, schedule: Q01DX005 (ip), vehicle: saline with Tween-80) was 90 % of control and the T/C (dose: 60.0 mg/kg/injection, schedule: Q01DX005 (ip), vehicle: Klucel (hydroxypropylcellulose) (HPC)) was 87 % of control. The T/C (dose: 240.0 mg/kg/injection, schedule: Q01DX005 (ip), vehicle: Klucel (hydroxypropylcellulose) (HPC)) was 86 % of control.
In the case of `C=C(c1ccc2nc(NC(=O)OC)[nH]c2c1)c1cccs1`, the T/C [2] was 108 % of control, the T/C [3] was 99 % of control and the T/C [15] was 98 % of control. For the same molecule, the T/C [16] was 100 % of control.
With `CCN(CC)P(Cl)(C1=C(Cl)C(=O)C(C#N)=C(C#N)C1=O)(N(CC)CC)N(CC)CC` the T/C [4] was 89 % of control and the T/C [5] was 89 % of control.
`Cn1c(-c2ccccc2)c2c(=O)oc3ccccc3c2c1-c1ccccc1` was tested, and the T/C (dose: 25.0 mg/kg/injection, schedule: Q04DX003 (ip), vehicle: Klucel (hydroxypropylcellulose) (HPC)) was 97 % of control, the T/C (dose: 50.0 mg/kg/injection, schedule: Q04DX003 (ip), vehicle: Klucel (hydroxypropylcellulose) (HPC)) was 100 % of control and the T/C (dose: 100.0 mg/kg/injection, schedule: Q04DX003 (ip), vehicle: Klucel (hydroxypropylcellulose) (HPC)) was 88 % of control and 94 % of control.
